“Also recorded” adds a separate entry of the source.
System: MiaPaCa-2 xenograft tumors
Test: Xenograft tumor growth in NU/NU mice after subcutaneous implantation of MiaPaCa tumor cells, intratumoral injections
Assay type: in vivo, mouse
Conditions: vs control; for tumor weight: xenografts harvested Day 25, n=8, FIG. 14(a)
Procedure: Twenty-four NU/NU nude mice were purchased from Charles River Laboratories (Frederick, MD) and each housed in a single cage with standard bedding, lighting and ad libitum feed.
The human pancreatic cell carcinoma MiaPaCa-2 cell line was obtained from American Type Culture Collection (ATCC, CRL-1420™) and cultured in DMEM with 10 percent fetal bovine serum and 1 percent pen-strep in a humidified incubator with temperature at 37 degrees C., and 5 percent CO2. Subcultures were made when cell volume reached ˜80-90 percent (roughly 3-5 days). Media was changed every 3 to 4 days. All experiments were performed when the cells reached approximately 80-90 percent confluence.
MiaPaCa tumor cells (2.5×10^6 cells) in 100 μl of growth media and 100 μl of Matrigel were injected subcutaneously into the left flank of each mouse on Day 0. Body weight measured using a digital scale, and tumor volume measured using a digital caliper, were recorded […]. Tumor volume was measured using external digital calipers with modified ellipsoid formula: ½(length×width^2).
The mice were assigned to one of three groups (n=8) approximately five to ten days after subcutaneous implantation of MiaPaCa cells, when tumors had reached 100 mm^3 in volume. Twice weekly (Mon. and Thurs.) for three-four weeks, mice in all three groups received intratumoral injections of 80 μl each. Mice in the control group were injected with non-silencing (NS) siRNA with HKP(+H) as a carrier. Mice in one of the treatment groups were injected with PGN7, i.e., GEM siRNA with HKP(+H)shk1 (2.z), (SEQ. ID No. 9-10). Mice in the second treatment group were injected with STD1, i.e., GEM siRNA with HKP(+H) chk1 (2.z) (SEQ. ID No. 3-4). All injections were given under isoflurane anesthesia to minimize discomfort
Tumor volume (mm^3) and body weights were measured on Days 0, 4, 7, 11, 14, 18, 21 and 25. Mean±SE for each group (PGN7, STD1 and control) were statistically compared using analysis of variance (ANOVA) with the Tukey test. Mice were also observed for excess growth, adverse reactions to treatments and other observable, adverse signs of health. Treatments were blinded to the tracers and data analysts.
All mice were sacrificed and the implanted xenograft removed on Day 26 after initial treatment (the last treatment given on Day 25). One-third of the xenograft was fixed in […] formalin for histological analysis; one-third was frozen and one-third was preserved in RNAlater stabilization and storage solution.

Q: For “PGN7: modified siRNA-GEM RNAi agent (SEQ. ID No. 9-10): sense 5′-AAGAAAgAgau[GEM]uGuAu[GEM]AAu-3′; antisense 5′-AuUGAuACAGAuCuCuUuCuU[GEM][GEM]dTdT-3′ (sense AAGAAAGAGATCTGTATCAAT; antisense ATTGATACAGATCTCTTTCTTCCTT; GEM modifications; 2'-modified bases; dTdT overhang; modified_base 1 OTHER; 2'-O-methyl modified nucleotide; modified_base 2 OTHER; modified_base 3 OTHER; modified_base 4 OTHER; modified_base 5 OTHER; modified_base 6 OTHER; modified_base 7 OTHER; 2'-fluoro modified nucleotide; modified_b; 2'-O-me)”, which tumor volume (intratumoral twice weekly with HKP(+H), ANOVA Tukey, p<0.02, from 14 days, FIG. 14(c)) is on record?
A: The tumor volume was “effectively attenuated the increase; also recorded: significantly reduced tumor volume; also recorded: attenuating the growth of pancreatic tumors”.

Q: What about the body weight (over 25 days, p>0.05, FIG. 14(b)) of the same substance?
A: The body weight was “did not differ”.

Q: What about the tumor weight (p>0.05) of the same substance?
A: Its tumor weight is “did not differ”.

Q: And the tumor weight (p>0.05, listed as PGN 7)?
A: The tumor weight was “did not differ significantly”.

— patent US20250027086A1, “COMPOSITIONS AND METHODS FOR TREATMENT OF CANCERS USING MODIFIED siRNA-GEM AGENTS” (Sirnaomics, Inc., priority 2022, published 2025)
